Measurements taken from patent US20250108007A1, “LIPID COMPOUND AND LIPID NANOPARTICLE COMPOSITION” (SUZHOU ABOGEN BIOSCIENCES CO., LTD., priority 2021, published 2025).

How the values were obtained:
[1] = Size and polydispersity of lipid nanoparticles by dynamic light scattering; type: physicochemical; conditions: LNP cationic lipid/DSPC/cholesterol/PEG-lipid 50:10:38.5:1.5 with mRNA
Description: (§1) Briefly, the cationic lipid, DSPC, cholesterol and PEG-lipid provided by the present invention were dissolved in ethanol at a molar ratio of 50:10:38.5:1.5, and mRNA was diluted in a citrate buffer at 10-50 mM, pH=4. The ethanolic lipid solution and the mRNA aqueous solution were mixed at a volume ratio of 1:3 by a microfluidic device at a flow rate of 9-30 mL/min, so as to prepare LNP at a weight ratio of total lipid to mRNA of about 10:1 to 30:1. PBS for dialysis was used instead of ethanol, thereby removing ethanol. Finally, the lipid nanoparticles were filtered through a 0.2 μm sterile filter.
(§2) The size of the lipid nanoparticles was determined by dynamic light scattering using 173° backscatter detection mode of Malvern Zetasizer Nano ZS (Malvern UK). According to the description of the manufacturer, the encapsulation efficiency of the lipid nanoparticle was determined using a Quant-it Ribogreen RNA quantitative assay kit (Thermo Fisher Scientific, UK).

[2] = Encapsulation efficiency of lipid nanoparticles (Quant-it Ribogreen RNA assay); type: physicochemical; conditions: LNP cationic lipid/DSPC/cholesterol/PEG-lipid 50:10:38.5:1.5 with mRNA
Description: as §1, §2

female ICR mice = test: hEPO mRNA lipid nanoparticles in mice, serum EPO by ELISA; type: in vivo; conditions: hEPO mRNA LNP, 0.5 mg/kg, tail vein injection, blood e.g. 6 hours after administration, relative to MC3 LNP positive control
Description: Lipid nanoparticles including human erythropoietin (hEPO) mRNA encapsulated by compound in the following table were administered at a dose of 0.5 mg/kg to female ICR mice at 6-8 weeks of age (Xipuer-Bikai, Shanghai) via tail vein injection. Mouse blood samples were taken at specific time points (e.g., 6 hours) after administration. In addition to the above test groups, the lipid nanoparticles including dilinoleylmethyl-4-dimethylaminobutyrate (DLin-MC3-DMA, commonly abbreviated as MC3) encapsulated hEPO mRNA were administered at the same dose to mice of similar age and sex as positive controls.
After the last sampling time point, the mice were euthanized by excess CO2. Serum was separated from whole blood by centrifugation at 5,000 g for 10 minutes at 4° C., snap frozen and stored at −80° C. for analysis. ELSA analysis was performed using a commercially available kit (DEP00, R&D system) according to the manufacturer instructions.
The following table lists the characteristics of the tested lipid nanoparticles, including the expression levels measured from the test group above MC3.

CCCCCCCCC(CCCCCC)COC(=O)CCCCCN(CCCCCC(=O)OCC(CCCCCC)CCCCCCCC)CCN1CCC(O)(CN(C)CC)CC1 (centres unmarked) [Compound 10]
Polydispersity index (PDI) [1]: 0.083 | Size (nm) [1]: 133.3 nm | Encapsulation efficiency (EE %) [2]: 96.7% | EPO expression relative to MC3 (female ICR mice): Not detected

CCCCCCCCC(CCCCCCCC)COC(=O)CCCCCN(CCCCCC(=O)OCC(CCCCCCCC)CCCCCCCC)CC1(O)CCN(C(=O)CCCCN(C)C)CC1 [Compound 4]
Polydispersity index (PDI) [1]: 0.28 | Size (nm) [1]: 55.63 nm | Encapsulation efficiency (EE %) [2]: 98.4% | EPO expression relative to MC3 (female ICR mice): Not detected

CCCCCCCCC(CCCCCCCC)COC(=O)CCCCCN(CCCCCC(=O)OCC(CCCCCCCC)CCCCCCCC)CC1(O)CCN(C)CC1 [Compound 2]
Polydispersity index (PDI) [1]: 0.114 | Size (nm) [1]: 80.02 nm | Encapsulation efficiency (EE %) [2]: 98.1% | EPO expression relative to MC3 (female ICR mice): Not detected

CCCCCCCCC(CCCCCC)COC(=O)CCCCCN(C)CC1(O)CCN(CCCCCC(=O)OCC(CCCCCC)CCCCCCCC)CC1 (centres unmarked) [Compound 11]
Polydispersity index (PDI) [1]: 0.045 | Size (nm) [1]: 86.19 nm | Encapsulation efficiency (EE %) [2]: 96.8% | EPO expression relative to MC3 (female ICR mice): B (B: ≥1 and <2)

CCCCCCCCC(CCCCCC)COC(=O)CCCCCN1CCC(O)(CN(CCCCCC(=O)OCC(CCCCCC)CCCCCCCC)C2CCCC2)CC1 (centres unmarked) [Compound 12]
Polydispersity index (PDI) [1]: 0.084 | Size (nm) [1]: 109.1 nm | Encapsulation efficiency (EE %) [2]: 81.5% | EPO expression relative to MC3 (female ICR mice): C (C: ≥0.1 and <1)

CCCCCCCCC(CCCCCC)COC(=O)CCCCCN(CCCCCC(=O)OCC(CCCCCC)CCCCCCCC)CCN1CCC(O)(CN(C)C)CC1 (centres unmarked) [Compound 14]
Polydispersity index (PDI) [1]: 0.139 | Size (nm) [1]: 97.33 nm | Encapsulation efficiency (EE %) [2]: 97.3% | EPO expression relative to MC3 (female ICR mice): Not detected

CCCCCCCCC(CCCCCCCC)COC(=O)CCCCCN(CCCCCC(=O)OCC(CCCCCCCC)CCCCCCCC)CC1(O)CCN(CCC)CC1 [Compound 6]
Polydispersity index (PDI) [1]: 0.034 | Size (nm) [1]: 83.23 nm | Encapsulation efficiency (EE %) [2]: 92.8% | EPO expression relative to MC3 (female ICR mice): A (A: ≥2)

CCCCCCCCC(CCCCCC)COC(=O)CCCCCN1CCC(O)(CN(CCCCCC(=O)OCC(CCCCCC)CCCCCCCC)C2CCCCC2)CC1 (centres unmarked) [Compound 13]
Polydispersity index (PDI) [1]: 0.049 | Size (nm) [1]: 117.7 nm | Encapsulation efficiency (EE %) [2]: 83.9% | EPO expression relative to MC3 (female ICR mice): C (C: ≥0.1 and <1)

CCCCCCCCC(CCCCCC)CC(=O)OCC(CCCCN1CCC(O)(CN(C)C)CC1)COC(=O)CC(CCCCCC)CCCCCCCC (centres unmarked) [Compound 15]
Polydispersity index (PDI) [1]: 0.06 | Size (nm) [1]: 53.67 nm | Encapsulation efficiency (EE %) [2]: 94.3% | EPO expression relative to MC3 (female ICR mice): Not detected

CCCCCCCCC(CCCCCCCC)COC(=O)CCCCCN1CCC(O)(CN(CCCCCC(=O)OCC(CCCCCCCC)CCCCCCCC)C2CCC2)CC1 [Compound 8]
Polydispersity index (PDI) [1]: 0.16 | Size (nm) [1]: 54.23 nm | Encapsulation efficiency (EE %) [2]: 93.7% | EPO expression relative to MC3 (female ICR mice): C (C: ≥0.1 and <1)

CCCCCCCCC(CCCCCCCC)COC(=O)CCCCCN(CCCCCC(=O)OCC(CCCCCCCC)CCCCCCCC)CC1(O)CCN(C(=O)CCCN(C)C)CC1 [Compound 1]
Polydispersity index (PDI) [1]: 0.257 | Size (nm) [1]: 68.14 nm | Encapsulation efficiency (EE %) [2]: 99.1% | EPO expression relative to MC3 (female ICR mice): Not detected

CCCCCCCCC(CCCCCCCC)COC(=O)CCCCCN(CCCCCC(=O)OCC(CCCCCCCC)CCCCCCCC)CC1(O)CCN(C(=O)CN(C)C)CC1 [Compound 3]
Polydispersity index (PDI) [1]: 0.248 | Size (nm) [1]: 78.45 nm | Encapsulation efficiency (EE %) [2]: 97.3% | EPO expression relative to MC3 (female ICR mice): Not detected

CCCCCCCCC(CCCCCCCC)COC(=O)CCCCCN(CCCCCC(=O)OCC(CCCCCCCC)CCCCCCCC)CCC(=O)N1CCC(O)(CN(C)C)CC1 [Compound 7]
Polydispersity index (PDI) [1]: 0.073 | Size (nm) [1]: 43.78 nm | Encapsulation efficiency (EE %) [2]: 97.6% | EPO expression relative to MC3 (female ICR mice): Not detected

CCCCCCCCC(CCCCCC)COC(=O)CCCCCN(CCCCCC(=O)OCC(CCCCCC)CCCCCCCC)CCCCCC(=O)N1CCC(O)(CN(C)C)CC1 (centres unmarked) [Compound 9]
Polydispersity index (PDI) [1]: 0.212 | Size (nm) [1]: 35.26 nm | Encapsulation efficiency (EE %) [2]: 97.6% | EPO expression relative to MC3 (female ICR mice): Not detected
